“Also recorded” adds a separate entry of the source.
Assays:
PS-DKO cells [1] = assay: Staining of lipid droplets with LipidTox Green; assay type: cell-based, mouse; conditions: BI 100 nM, desipramine 10 μM, GW4869 5 μM, 12-16 h, Gleevec 10 μM
Description: (§1) Quantification of total cholesterol and cholesteryl esters was performed using the Cholesterol/Cholesteryl Ester Quantitation kit from Calbiochem (428901). Staining of lipid droplets Staining of lipid droplets was performed using HCS LipidTox™ Deep Green neutral lipid stain (Invitrogen H34475) according to the manufacturer's instructions. Lipid droplet staining was quantified using ImageJ. The different values represent the product of the intensity and the area covered by the fluorescent signal above background in every cell examined.
(§2) Staining of lipid droplets was performed using HCS LipidTox™ Deep Green neutral lipid stain (Invitrogen H34475) according to the manufacturer's instructions. Lipid droplet staining was quantified using ImageJ. The different values represent the product of the intensity and the area covered by the fluorescent signal above background in every cell examined.

[2] = system: cortical neurons and astrocytes from PS1-KI M146V mice; assay: Staining of lipid droplets with LipidTox Green; assay type: cell-based, mouse; conditions: 100 nM BI
Description: as §1, §2

[3] = system: fibroblasts from AD patients; assay: Staining of lipid droplets with LipidTox Green; assay type: cell-based, human; conditions: 100 nM BI
Description: as §1, §2

PS-DKO cells [4] = assay: Conversion of fluorescent sphingomyelin to ceramide in mitochondrial membranes (TLC); assay type: cell-based, mouse; conditions: PS-DKO (presenilin-mutant) cells; BI
Description: SMase activity was therefore measured in MEFs lacking APP and APLP2 (APP-DKO) (28). […] To test this, SMases was measured in PSDKO cells treated with α- and β-secretase inhibitors, to abrogate the production of C83 and C99, respectively. As controls, the γ-secretase products Aβ and AICD were also added back (FIG. 9G). […] For corroboration in vivo, PS-DKO and control cells were incubated with a fluorescent analog of sphingomyelin and analyzed its conversion to ceramide.
To explore this further, PS-DKO and control cells were incubated with a fluorescent sphingomyelin (FL-SM) and its localization and conversion to ceramide in mitochondrial membranes was analyzed by thin-layer chromatography (TLC).
To explore this further, we incubated PS-DKO and control cells with fluorescent sphingomyelin and analyzed its localization and conversion to ceramide in mitochondrial membranes by thin-layer chromatography (TLC).

PS-DKO cells [5] = assay: Seahorse analysis of mitochondrial respiration (OCR); assay type: cell-based, mouse; conditions: BI 100 nM, myriocin 5 μM, TAPI-1 5 μM, 12-16 h, Aβ40:Aβ42 10:1, 6 ng/ml
Description: (§3) Respirometry of cultured cells was performed using the XF24e Extracellular Flux Analyzer (Seahorse Bioscience). Oxygen consumption was measured in basal conditions (Seahorse media with 25 mM glucose and 2 mM pyruvate) and after the sequential addition of 1 μM oligomycin (Complex V inhibitor), 0.75 μM FCCP (uncoupler) and 1 μM rotenone/1 μM antimycin A (Complex I and Complex III inhibitors respectively).
(§4) Respirometry of cultured cells was performed using the XF24e Extracellular Flux Analyzer (Seahorse Bioscience). Oxygen consumption was measured in basal conditions (Seahorse media with 25 mM glucose and 2 mM pyruvate) and after the sequential addition of 1 μM oligomycin (complex V inhibitor), 0.75 μM FCCP (uncoupler), and 1 μM rotenone/1 μM antimycin A (complex I and complex III inhibitors, respectively). All results were averages of five or more biological replicates. Every biological replicate consisted of three technical replicates. For every technical replicate, we plated equal number of cells (25,000 cell/well when MEFs were used, and 50,000 cells/well when human primary fibroblasts were analyzed). The number of cells was also counted after every respirometry assay to correct for cell death. All oxygen consumption (OCR) data were normalized by the number of viable cells or by protein quantity when isolated mitochondria were used.

APP-DKO cells = assay: as above; assay type: cell-based, mouse; conditions: APP-DKO cells expressing C99; DAPT added
Description: as §3
(§5) To analyze the effect of Aβ addition, a mix of Aβ40/Aβ42 at a ratio 10:1 was added to the cultured cells to a final concentration of 6000 pg/ml for 24 h. For Aβ42 oligomer formation, 5 mM of Aβ42 in DMSO was diluted to 100 μM in ice-cold media, vortexed for 30 seconds, and incubated at 4° C. for 24 h. Aβ42 Oligomers were added to the cultured cells to a final concentration of 5 or 10 μM for 24 h.
as §4
as §5, with “6,000” for “6000”, “s,” for “seconds,”, “Aβ42 Oligomers were added to the cultured cells to a final concentration of 5 or 10 μM for 24 h.” left out

| Structure (SMILES) | number of lipid droplets (LDs) (PS-DKO cells [1]) | number of lipid droplets (LDs) [2] | number of lipid droplets (LDs) [3] | increase in ceramide derived from fluorescent sphingomyelin at mitochondria (PS-DKO cells [4]) | mitochondrial respiration (initial oxygen consumption rate, OCR) (PS-DKO cells [5]) | mitochondrial respiration (OCR) (APP-DKO cells) |
| --- | --- | --- | --- | --- | --- | --- |
| C[C@@H](NC(=O)c1cc(C(=O)N[C@@H](Cc2ccccc2)[C@H](O)CNC2CC2)cc(N(C)S(C)(=O)=O)c1)c1ccccc1 [BI, β-secretase inhibitor IV] | reduced the number of LDs | reduced the number of LDs | reduced the number of LDs | this increase disappeared; also recorded: the elevated deposition of ceramide at mitochondria disappeared | reversed the defect in mitochondrial respiration; also recorded: rescued the respiration defects | – |
| C[C@H](NC(=O)Cc1cc(F)cc(F)c1)C(=O)N[C@H](C(=O)OC(C)(C)C)c1ccccc1 [DAPT] | – | – | – | – | – | accentuated |

— patent US11266626B2, “Reduction of ER-MAM-localized APP-C99 and methods of treating alzheimer's disease” (THE TRUSTEES OF COLUMBIA UNIVERSITY IN THE CITY OF NEW YORK, priority 2015, dated 2022)
